Test results taken from US8114994B2, “2′ and 3′-substituted cyclobutyl nucleoside analogs for the treatment viral infections and abnormal cellular proliferation” (Emory University, priority 2004, dated 2012).

Experiments:
Recombinant HIV RT (WT) = target: T1, Recombinant HIV RT (WT) (Human immunodeficiency virus type 1 group M subtype B, UniProt P04585); experiment: RT assay, recombinant wild type HIV-RT (cell-free); type: biochemical; settings: triplicates from one experiment, read-out: Inhibition of RT Activity (IC50)
T1 construct: was evaluated against recombinant wild type HIV-RT
Description: [drawing 29] was evaluated against recombinant wild type HIV-RT, as well as the M184I and M184V mutants, according to the RT assay described in Eriksson B F, Chu C K, Schinazi R F; Antimicrob. Agents Chemother. 1989, 33, 1729-1734. The results are tabulated in Tables 2-5 and depicted in FIGS. 1-3.

[1] = target: T2, HIV-RT from viral-lysate (WT) (Human immunodeficiency virus type 1 group M subtype B, UniProt P04585); experiment: Inhibition of HIV-RT from viral-lysate (WT); type: biochemical; settings: for % Inhibition / cpm/ml: RT from viral lysate (WT); for IC50: HIV RT (WT) from viral lysates from infected PBMC, triplicates from one experiment
T2 construct: from tissue; host or cells: HIV viral lysate

HIV RT (M/I) = target: T3, HIV RT (M/I) (Human immunodeficiency virus type 1 group M subtype B, UniProt P04585, M771I); experiment: Inhibition of HIV-RT from viral lysate, M184I mutant (M/I); type: biochemical; settings: for % Inhibition / cpm/ml: M/I RT; for IC50: HIV RT (M/I) from viral lysates from infected PBMC, triplicates from one experiment
T3 construct: from tissue; host or cells: HIV viral lysate (M184I mutant strain)

HIV RT (M/V) = target: T4, HIV RT (M/V) (Human immunodeficiency virus type 1 group M subtype B, UniProt P04585, M771V); experiment: Inhibition of HIV-RT from viral-lysate (M/V), M184V mutant; type: biochemical; settings: for % Inhibition / cpm/ml: RT from viral lysate (M/V); for IC50: HIV RT (M/V) from viral lysates from infected PBMC, triplicates from one experiment
T4 construct: from tissue; host or cells: HIV viral lysate (M184V mutant strain)

HIV [2] = experiment: Anti-HIV activity in PBM cells; type: cell-based; settings: Human immunodeficiency virus 1, PBMC
Description: (§1) The cyclobutyl nucleoside analogs (CBN) were evaluated for their anti-HIV activity and cytotoxicity in PBM, CEM and Vero cells, according to known procedures.
(§2) The following cyclobutyl nucleoside compounds were evaluated for their anti-HIV activity and cytotoxicity in PBM cells, according to standard procedures.

PBM cells = experiment: Toxicity in PBM cells; type: cell-based; settings: PBMC
Description: as §1, §2

CEM cells = experiment: Toxicity in CEM cells; type: cell-based; settings: Homo sapiens, CCRF-CEM
Description: as §1, §2

Vero cells = experiment: Toxicity in Vero cells; type: cell-based; settings: Chlorocebus sabaeus
Description: as §1, §2

HIV [3] = experiment: Anti-HIV activity in PBM cells; type: cell-based; settings: Example 114, refers to Table 6
HIV [4] = settings: after 28 days treatment; preliminary human data; cited from earlier work

## 5-fluoro-1-[cis-3-(hydroxymethyl)-cyclobutyl]-cytosine triphosphate [DLS183-TP]
Recombinant HIV RT (WT)
  IC50: 4.74 µM
[1]; 0.1 μM
  % Inhibition: 0.01%
  cpm/ml: 280781.826 cpm/ml
[1]; 1 μM
  % Inhibition: 18%
  cpm/ml: 228126.312 cpm/ml
[1]; 10 μM
  % Inhibition: 51%
  cpm/ml: 134616.36 cpm/ml
[1]
  IC50: 6.85 µM
HIV RT (M/I); 0.1 μM
  % Inhibition: 0.01%
  cpm/ml: 407041.44 cpm/ml
HIV RT (M/I); 1 μM
  % Inhibition: 20%
  cpm/ml: 272130.486 cpm/ml
HIV RT (M/I); 10 μM
  % Inhibition: 53%
  cpm/ml: 160719.12 cpm/ml
HIV RT (M/I)
  IC50: 6.06 µM
HIV RT (M/V); 0.1 μM
  % Inhibition: 5%
  cpm/ml: 297603.432 cpm/ml
HIV RT (M/V); 1 μM
  % Inhibition: 22%
  cpm/ml: 245062.692 cpm/ml
HIV RT (M/V); 10 μM
  % Inhibition: 51%
  cpm/ml: 152688.27 cpm/ml
HIV RT (M/V)
  IC50: 6.91 µM

## Nc1ccn([C@@H]2CS[C@H](COP(=O)(O)OP(=O)(O)OP(=O)(O)O)O2)c(=O)n1 [Compound 3TC-TP, reference compound]
Recombinant HIV RT (WT)
  IC50: 2.99 µM
[1]; 0.1 μM
  % Inhibition: 3.1%
  cpm/ml: 268420.2 cpm/ml
[1]; 1 μM
  % Inhibition: 22%
  cpm/ml: 215883.012 cpm/ml
[1]; 10 μM
  % Inhibition: 55%
  cpm/ml: 124341.312 cpm/ml
[1]
  IC50: 6.53 µM
HIV RT (M/I); 0.1 μM
  % Inhibition: 0.03%
  cpm/ml: 329435.346 cpm/ml
HIV RT (M/I); 1 μM
  % Inhibition: 0.03%
  cpm/ml: 329605.62 cpm/ml
HIV RT (M/I); 10 μM
  % Inhibition: 13%
  cpm/ml: 298628.406 cpm/ml
HIV RT (M/I)
  IC50: > 10 µM
HIV RT (M/V); 0.1 μM
  % Inhibition: 13%
  cpm/ml: 270239.712 cpm/ml
HIV RT (M/V); 1 μM
  % Inhibition: 7%
  cpm/ml: 288267.666 cpm/ml
HIV RT (M/V); 10 μM
  % Inhibition: 0.01%
  cpm/ml: 336946.272 cpm/ml
HIV RT (M/V)
  IC50: > 10 µM

## O=c1ccn([C@@H]2C[C@H](CO)C2F)c(=O)[nH]1 (stereo partly drawn) [DLS-194]
HIV [2]
  EC50: > 100 µM

## Nc1ccn([C@@H]2C[C@H](CO)C2F)c(=O)n1 (stereo partly drawn) [DLS-195]
HIV [2]
  EC50: > 100 µM

## O=c1[nH]c(=O)n([C@@H]2C[C@H](CO)C2F)cc1F (stereo partly drawn) [DLS-196]
HIV [2]
  EC50: > 100 µM

## OC[C@H]1C[C@@H](n2cnc3c(Cl)ncnc32)C1F (stereo partly drawn) [DLS-197]
HIV [2]
  EC50: > 100 µM

## Nc1ncnc2c1ncn2[C@@H]1C[C@H](CO)C1F (stereo partly drawn) [DLS-206]
HIV [2]
  EC50: 50.4 µM
  EC90: > 100 µM
PBM cells
  IC50: > 100 µM
CEM cells
  IC50: > 100 µM
Vero cells
  IC50: > 100 µM
HIV [3]
  inhibition of HIV-RT (in words): significant inhibition

## Nc1ncnc2c1ncn2[C@@H]1C[C@H](CO)C1O (stereo partly drawn) [DLS-207]
HIV [2]
  EC50: 33.7 µM
  EC90: 60.1 µM
PBM cells
  IC50: 13.8 µM
CEM cells
  IC50: > 100 µM
Vero cells
  IC50: 97.8 µM
HIV [3]
  inhibition of HIV-RT (in words): significant inhibition

## O=c1[nH]c(=O)n(C[C@@H]2C[C@H](CO)C2O)cc1F (stereo partly drawn) [DLS-210]
HIV [2]
  EC50: > 100 µM

## Nc1ncnc2c1ncn2C[C@H]1C[C@H](CO)C1 [DLS-211]
HIV [2]
  EC50: > 100 µM

## Nc1ncnc2c1ncn2CC1CC(CO)C1 (stereo not drawn) [DLS-212]
HIV [2]
  EC50: > 100 µM

## Nc1nc(O[C@@H]2C[C@H](CO)C2F)ncc1F (stereo partly drawn) [DLS-221]
HIV [2]
  EC50: > 100 µM

## Nc1nc(=O)n([C@@H]2C[C@H](CO)C2F)cc1F (stereo partly drawn) [DLS-222]
HIV [2]
  EC50: > 100 µM

## Nc1nc2c(ncn2[C@@H]2C[C@H](CO)C2F)c(=O)[nH]1 (stereo partly drawn) [DLS-223]
HIV [2]
  EC50: 27.7 µM
  EC90: > 100 µM
PBM cells
  IC50: > 100 µM
CEM cells
  IC50: > 100 µM
Vero cells
  IC50: > 100 µM
HIV [3]
  inhibition of HIV-RT (in words): significant inhibition

## Nc1nc2c(ncn2[C@@H]2CC(CO)C2CO)c(=O)[nH]1 (stereo partly drawn) [lobucavir, (R)-9-[2,3-Bis(hydroxymethyl)cyclobutyl]guanine]
HIV [4]
  reductions in HIV viral load: ≤ 1.5 log
